Laboratory results as given in patent US11109593B2, “Isoxazolin-5-one derivative and herbicide containing same as active ingredient” (HOKKO CHEMICAL INDUSTRY CO., LTD., priority 2017, dated 2021).

Legend:
Type in all cases: in vivo
Echinochloa crus-galli [1] = experiment: Test Example 1: herbicidal effect test by treatment of rice paddy soil (immediately after seeding); conditions: 120 g/10a active ingredient, dry weight vs untreated area, 14 days after treatment
Outline: (§1)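 Paddy soil in pots with compound fertilizer, puddled; 30 seeds per species sown at 0–1 cm, flooded ~3 cm, greenhouse. Water-diluted emulsions dropped onto water immediately after seeding at 120 g active ingredient per 10 ares, duplicate. Herbicidal rate (%) from plant dry weight versus untreated, 14 days after treatment.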

Scirpus juncoides [2] = experiment: as above; conditions: 120 g/10a active ingredient, dry weight vs untreated area, 14 days after treatment
Outline: as §1

[3] = tested on: broad leaf weeds (Lindernia pyxidaria and Monochoria vaginalis); experiment: as above; conditions: 120 g/10a active ingredient, dry weight vs untreated area, 14 days after treatment
Outline: as §1

Echinochloa crus-galli [4] = experiment: Test Example 2: herbicidal effect test by treatment during growing period in paddy rice cultivation (seven days after seeding); conditions: 120 g/10a active ingredient, assessed 14 days after treatment, dry weight vs untreated area
Outline: (§2)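 Seeds sown 0–1 cm deep in puddled, fertilised paddy soil with about 3 cm standing water in a glass greenhouse. Diluted emulsion dropped into the water seven days after seeding at 120 g active ingredient per 10 ares. Herbicidal rate (%) from mean dry weight vs untreated, duplicate, 14 days after treatment.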

Scirpus juncoides [5] = experiment: as above; conditions: 120 g/10a active ingredient, assessed 14 days after treatment, dry weight vs untreated area
Outline: as §2

[6] = tested on: broad leaf weeds (Lindernia pyxidaria and Monochoria vaginalis); experiment: as above; conditions: 120 g/10a active ingredient, assessed 14 days after treatment, dry weight vs untreated area
Outline: as §2

Amaranthus viridis [7] = experiment: Test Example 3: herbicidal effect test by treatment of dry field farming soil (one day after seeding); conditions: 120 g/10a active ingredient, evaluated 14 days after treatment
Outline: (§3)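 Alluvial dry-field soil in pots, top 1 cm mixed with 20 seeds per weed species. One day after seeding, the water-diluted emulsion was sprayed onto the soil surface at 100 L per 10 ares (120 g active ingredient per 10 ares). Duplicate pots; herbicidal rate (%) from plant dry weight versus untreated, 14 days after treatment.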

Chenopodium album [8] = experiment: as above; conditions: 120 g/10a active ingredient, evaluated 14 days after treatment
Outline: as §3

Echinochloa crus-galli [9] = experiment: as above; conditions: 120 g/10a active ingredient, evaluated 14 days after treatment
Outline: as §3

southern crabgrass [10] = experiment: as above; conditions: 120 g/10a active ingredient, evaluated 14 days after treatment
Outline: as §3

Amaranthus viridis [11] = experiment: Test Example 4: herbicidal effect test by treatment of leave and stem in dry field farming (seven days after seeding); conditions: 120 g/10a active ingredient; emulsion sprayed seven days after seeding; evaluated 14 days after treatment
Outline: (§4)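 Twenty seeds per species were mixed into the top 1 cm of alluvial soil in 36 cm^2 pots; emulsions were sprayed seven days after seeding at 100 L per 10 ares (120 g active ingredient per 10 ares). Herbicidal rate (%) = {1 − treated/untreated mean dry weight} × 100, 14 days after treatment, duplicate.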

Chenopodium album [12] = experiment: as above; conditions: 120 g/10a active ingredient; emulsion sprayed seven days after seeding; evaluated 14 days after treatment
Outline: as §4

Echinochloa crus-galli [13] = experiment: as above; conditions: 120 g/10a active ingredient; emulsion sprayed seven days after seeding; evaluated 14 days after treatment
Outline: as §4

southern crabgrass [14] = experiment: as above; conditions: 120 g/10a active ingredient; emulsion sprayed seven days after seeding; evaluated 14 days after treatment
Outline: as §4

CCC(CC)Cn1oc(=O)c(Cc2ccccc2NS(=O)(=O)C(F)(F)F)c1C [Compound 1-113]
40%: herbicidal effect (herbicidal rate), Chenopodium album (Chenopodium album [12])
100%: Herbicidal rate (%) Echinochloa crus-galli (Echinochloa crus-galli [1]) | Herbicidal rate (%) Scirpus juncoides (Scirpus juncoides [2]) | Herbicidal rate (%) Lindernia pyxidaria [3] | Herbicidal rate (%) Monochoria vaginalis [3] | herbicidal rate, Chenopodium album (Chenopodium album [8])
60%: Herbicidal rate (%) Lindernia pyxidaria [6] | herbicidal effect (herbicidal rate), Amaranthus viridis (Amaranthus viridis [11]) | herbicidal effect (herbicidal rate), southern crabgrass (southern crabgrass [14])
90%: Herbicidal rate (%) Echinochloa crus-galli (Echinochloa crus-galli [4]) | Herbicidal rate (%) Scirpus juncoides (Scirpus juncoides [5]) | herbicidal rate, Echinochloa crus-galli (Echinochloa crus-galli [9]) | herbicidal rate, southern crabgrass (southern crabgrass [10])
80%: Herbicidal rate (%) Monochoria vaginalis [6] | herbicidal rate, Amaranthus viridis (Amaranthus viridis [7]) | herbicidal effect (herbicidal rate), Echinochloa crus-galli (Echinochloa crus-galli [13])

CCC(C)Cn1oc(=O)c(Cc2ccccc2N(C(=O)OC)S(=O)(=O)C(F)(F)F)c1C (stereo not shown) [Compound 1-583]
90%: Herbicidal rate (%) Scirpus juncoides (Scirpus juncoides [2]) | Herbicidal rate (%) Lindernia pyxidaria [3] | Herbicidal rate (%) Monochoria vaginalis [3] | Herbicidal rate (%) Scirpus juncoides (Scirpus juncoides [5]) | Herbicidal rate (%) Monochoria vaginalis [6] | herbicidal rate, southern crabgrass (southern crabgrass [10])
60%: herbicidal rate, Amaranthus viridis (Amaranthus viridis [7]) | herbicidal effect (herbicidal rate), southern crabgrass (southern crabgrass [14])
80%: Herbicidal rate (%) Lindernia pyxidaria [6] | herbicidal effect (herbicidal rate), Echinochloa crus-galli (Echinochloa crus-galli [13])
50%: herbicidal rate, Chenopodium album (Chenopodium album [8]) | herbicidal effect (herbicidal rate), Amaranthus viridis (Amaranthus viridis [11]) | herbicidal effect (herbicidal rate), Chenopodium album (Chenopodium album [12])
100%: Herbicidal rate (%) Echinochloa crus-galli (Echinochloa crus-galli [1]) | Herbicidal rate (%) Echinochloa crus-galli (Echinochloa crus-galli [4]) | herbicidal rate, Echinochloa crus-galli (Echinochloa crus-galli [9])

COCC(C)n1oc(=O)c(Cc2ccccc2N(S(C)(=O)=O)S(=O)(=O)C(F)(F)F)c1C (stereo not shown) [Compound 1-899]
40%: herbicidal effect (herbicidal rate), Amaranthus viridis (Amaranthus viridis [11]) | herbicidal effect (herbicidal rate), Chenopodium album (Chenopodium album [12])
90%: Herbicidal rate (%) Echinochloa crus-galli (Echinochloa crus-galli [1]) | Herbicidal rate (%) Scirpus juncoides (Scirpus juncoides [2]) | Herbicidal rate (%) Lindernia pyxidaria [3] | Herbicidal rate (%) Monochoria vaginalis [3] | Herbicidal rate (%) Echinochloa crus-galli (Echinochloa crus-galli [4]) | Herbicidal rate (%) Scirpus juncoides (Scirpus juncoides [5]) | Herbicidal rate (%) Lindernia pyxidaria [6] | Herbicidal rate (%) Monochoria vaginalis [6] | herbicidal rate, Amaranthus viridis (Amaranthus viridis [7]) | herbicidal rate, Chenopodium album (Chenopodium album [8]) | herbicidal rate, Echinochloa crus-galli (Echinochloa crus-galli [9]) | herbicidal rate, southern crabgrass (southern crabgrass [10]) | herbicidal effect (herbicidal rate), Echinochloa crus-galli (Echinochloa crus-galli [13]) | herbicidal effect (herbicidal rate), southern crabgrass (southern crabgrass [14])

C=CCOC(=O)N(c1ccccc1Cc1c(C)n(CC(C)C)oc1=O)S(=O)(=O)C(F)(F)F [Compound 1-707]
40%: herbicidal effect (herbicidal rate), Amaranthus viridis (Amaranthus viridis [11]) | herbicidal effect (herbicidal rate), Chenopodium album (Chenopodium album [12])
90%: Herbicidal rate (%) Echinochloa crus-galli (Echinochloa crus-galli [1]) | Herbicidal rate (%) Scirpus juncoides (Scirpus juncoides [2]) | Herbicidal rate (%) Lindernia pyxidaria [3] | Herbicidal rate (%) Monochoria vaginalis [3] | Herbicidal rate (%) Echinochloa crus-galli (Echinochloa crus-galli [4]) | Herbicidal rate (%) Scirpus juncoides (Scirpus juncoides [5]) | Herbicidal rate (%) Lindernia pyxidaria [6] | Herbicidal rate (%) Monochoria vaginalis [6] | herbicidal rate, Amaranthus viridis (Amaranthus viridis [7]) | herbicidal rate, Chenopodium album (Chenopodium album [8]) | herbicidal rate, Echinochloa crus-galli (Echinochloa crus-galli [9]) | herbicidal rate, southern crabgrass (southern crabgrass [10]) | herbicidal effect (herbicidal rate), Echinochloa crus-galli (Echinochloa crus-galli [13]) | herbicidal effect (herbicidal rate), southern crabgrass (southern crabgrass [14])

Cc1c(Cc2ccccc2N(S(=O)(=O)C(F)(F)F)S(=O)(=O)C(F)(F)F)c(=O)on1C(C)C [Compound 1-962]
40%: herbicidal effect (herbicidal rate), Amaranthus viridis (Amaranthus viridis [11])
50%: herbicidal effect (herbicidal rate), Chenopodium album (Chenopodium album [12])
100%: Herbicidal rate (%) Echinochloa crus-galli (Echinochloa crus-galli [1]) | Herbicidal rate (%) Lindernia pyxidaria [3] | Herbicidal rate (%) Monochoria vaginalis [3]
70%: herbicidal rate, Chenopodium album (Chenopodium album [8])
90%: Herbicidal rate (%) Scirpus juncoides (Scirpus juncoides [2]) | Herbicidal rate (%) Echinochloa crus-galli (Echinochloa crus-galli [4]) | herbicidal rate, Echinochloa crus-galli (Echinochloa crus-galli [9]) | herbicidal rate, southern crabgrass (southern crabgrass [10]) | herbicidal effect (herbicidal rate), Echinochloa crus-galli (Echinochloa crus-galli [13])
80%: Herbicidal rate (%) Scirpus juncoides (Scirpus juncoides [5]) | Herbicidal rate (%) Monochoria vaginalis [6] | herbicidal rate, Amaranthus viridis (Amaranthus viridis [7])
60%: Herbicidal rate (%) Lindernia pyxidaria [6] | herbicidal effect (herbicidal rate), southern crabgrass (southern crabgrass [14])

CCc1c(Cc2ccccc2NS(=O)(=O)C(F)(F)F)c(=O)on1C(C)C [Compound 1-63]
100%: Herbicidal rate (%) Scirpus juncoides (Scirpus juncoides [2]) | Herbicidal rate (%) Lindernia pyxidaria [3] | Herbicidal rate (%) Monochoria vaginalis [3]
80%: Herbicidal rate (%) Echinochloa crus-galli (Echinochloa crus-galli [4]) | Herbicidal rate (%) Lindernia pyxidaria [6]
90%: Herbicidal rate (%) Echinochloa crus-galli (Echinochloa crus-galli [1]) | Herbicidal rate (%) Scirpus juncoides (Scirpus juncoides [5]) | Herbicidal rate (%) Monochoria vaginalis [6] | herbicidal rate, Echinochloa crus-galli (Echinochloa crus-galli [9]) | herbicidal rate, southern crabgrass (southern crabgrass [10]) | herbicidal effect (herbicidal rate), Echinochloa crus-galli (Echinochloa crus-galli [13])
40%: herbicidal rate, Amaranthus viridis (Amaranthus viridis [7]) | herbicidal rate, Chenopodium album (Chenopodium album [8]) | herbicidal effect (herbicidal rate), Amaranthus viridis (Amaranthus viridis [11])
60%: herbicidal effect (herbicidal rate), Chenopodium album (Chenopodium album [12]) | herbicidal effect (herbicidal rate), southern crabgrass (southern crabgrass [14])

CCCC(C)n1oc(=O)c(Cc2ccccc2N(S(C)(=O)=O)S(=O)(=O)C(F)(F)F)c1C (stereo not shown) [Compound 1-894]
70%: Herbicidal rate (%) Lindernia pyxidaria [6] | Herbicidal rate (%) Monochoria vaginalis [6] | herbicidal rate, Amaranthus viridis (Amaranthus viridis [7])
60%: Herbicidal rate (%) Monochoria vaginalis [3] | herbicidal rate, Chenopodium album (Chenopodium album [8]) | herbicidal effect (herbicidal rate), Amaranthus viridis (Amaranthus viridis [11]) | herbicidal effect (herbicidal rate), Chenopodium album (Chenopodium album [12])
100%: Herbicidal rate (%) Echinochloa crus-galli (Echinochloa crus-galli [1]) | Herbicidal rate (%) Scirpus juncoides (Scirpus juncoides [2])
90%: Herbicidal rate (%) Echinochloa crus-galli (Echinochloa crus-galli [4]) | herbicidal rate, Echinochloa crus-galli (Echinochloa crus-galli [9]) | herbicidal rate, southern crabgrass (southern crabgrass [10]) | herbicidal effect (herbicidal rate), Echinochloa crus-galli (Echinochloa crus-galli [13]) | herbicidal effect (herbicidal rate), southern crabgrass (southern crabgrass [14])
80%: Herbicidal rate (%) Lindernia pyxidaria [3] | Herbicidal rate (%) Scirpus juncoides (Scirpus juncoides [5])

CCCC(CC)n1oc(=O)c(Cc2ccccc2NS(=O)(=O)C(F)(F)F)c1C (stereo not shown) [Compound 1-110]
80%: Herbicidal rate (%) Scirpus juncoides (Scirpus juncoides [5]) | Herbicidal rate (%) Lindernia pyxidaria [6] | herbicidal rate, Amaranthus viridis (Amaranthus viridis [7]) | herbicidal rate, Chenopodium album (Chenopodium album [8])
90%: herbicidal rate, Echinochloa crus-galli (Echinochloa crus-galli [9]) | herbicidal rate, southern crabgrass (southern crabgrass [10]) | herbicidal effect (herbicidal rate), Echinochloa crus-galli (Echinochloa crus-galli [13]) | herbicidal effect (herbicidal rate), southern crabgrass (southern crabgrass [14])
60%: herbicidal effect (herbicidal rate), Amaranthus viridis (Amaranthus viridis [11])
100%: Herbicidal rate (%) Echinochloa crus-galli (Echinochloa crus-galli [1]) | Herbicidal rate (%) Scirpus juncoides (Scirpus juncoides [2]) | Herbicidal rate (%) Lindernia pyxidaria [3] | Herbicidal rate (%) Monochoria vaginalis [3] | Herbicidal rate (%) Echinochloa crus-galli (Echinochloa crus-galli [4]) | Herbicidal rate (%) Monochoria vaginalis [6]
50%: herbicidal effect (herbicidal rate), Chenopodium album (Chenopodium album [12])

CCC(C)n1oc(=O)c(Cc2ccccc2N(C(=O)c2ccccc2)S(=O)(=O)C(F)(F)F)c1C (stereo not shown) [Compound 1-474]
40%: herbicidal effect (herbicidal rate), Amaranthus viridis (Amaranthus viridis [11]) | herbicidal effect (herbicidal rate), Chenopodium album (Chenopodium album [12])
90%: Herbicidal rate (%) Echinochloa crus-galli (Echinochloa crus-galli [1]) | Herbicidal rate (%) Scirpus juncoides (Scirpus juncoides [2]) | Herbicidal rate (%) Lindernia pyxidaria [3] | Herbicidal rate (%) Monochoria vaginalis [3] | Herbicidal rate (%) Echinochloa crus-galli (Echinochloa crus-galli [4]) | Herbicidal rate (%) Scirpus juncoides (Scirpus juncoides [5]) | Herbicidal rate (%) Lindernia pyxidaria [6] | Herbicidal rate (%) Monochoria vaginalis [6] | herbicidal rate, Amaranthus viridis (Amaranthus viridis [7]) | herbicidal rate, Chenopodium album (Chenopodium album [8]) | herbicidal rate, Echinochloa crus-galli (Echinochloa crus-galli [9]) | herbicidal rate, southern crabgrass (southern crabgrass [10]) | herbicidal effect (herbicidal rate), Echinochloa crus-galli (Echinochloa crus-galli [13]) | herbicidal effect (herbicidal rate), southern crabgrass (southern crabgrass [14])

COC(=O)N(c1ccccc1Cc1c(C)n(Cc2ccc(F)cc2)oc1=O)S(=O)(=O)C(F)(F)F [Compound 1-597]
40%: herbicidal effect (herbicidal rate), Amaranthus viridis (Amaranthus viridis [11]) | herbicidal effect (herbicidal rate), Chenopodium album (Chenopodium album [12]) | herbicidal effect (herbicidal rate), Echinochloa crus-galli (Echinochloa crus-galli [13])
0%: herbicidal rate, Amaranthus viridis (Amaranthus viridis [7]) | herbicidal rate, Chenopodium album (Chenopodium album [8])
50%: herbicidal effect (herbicidal rate), southern crabgrass (southern crabgrass [14])
80%: Herbicidal rate (%) Lindernia pyxidaria [6]
100%: Herbicidal rate (%) Monochoria vaginalis [3] | Herbicidal rate (%) Monochoria vaginalis [6]
90%: Herbicidal rate (%) Echinochloa crus-galli (Echinochloa crus-galli [1]) | Herbicidal rate (%) Scirpus juncoides (Scirpus juncoides [2]) | Herbicidal rate (%) Lindernia pyxidaria [3] | Herbicidal rate (%) Echinochloa crus-galli (Echinochloa crus-galli [4]) | Herbicidal rate (%) Scirpus juncoides (Scirpus juncoides [5]) | herbicidal rate, Echinochloa crus-galli (Echinochloa crus-galli [9]) | herbicidal rate, southern crabgrass (southern crabgrass [10])
